Measured values from US10335380B2, “Compounds suitable for the treatment of myeloproliferative neoplasms as well as methods for the diagnosis/prognosis of myeloproliferative neoplasms” (CNIC Fundacion Centro Nacional De investigaciones …, priority 2013, dated 2019).

Legend:
[1] = biological target: β1 receptors (Homo sapiens, UniProt P08588); settings: read-out: Ki for β1 receptors; cited from earlier work
[2] = tested on: Nes-creERT2;iDTA mice depleted in nestin+ cells; experiment: BRL37344 treatment of Nes-creERT2;iDTA mice depleted in nestin+ cells, transplanted with MPN BM cells; assay type: in vivo, mouse; settings: BRL37344 for 6 weeks
Procedure: (§1) Age-matched, female wild-type C57BL/6J or Nes-gfp mice were used as recipients in bone marrow (BM) transplantation assays and for in vivo pharmacological treatments. […] Vehicle (saline solution) daily injections were performed in the same way. Unless indicated, treatment was initiated 4 weeks posttransplant, when animals evidenced peripheral blood signs of MPN. Mice were randomly distributed prior to treatment initiation, and disease development was monitored over time in peripheral blood samples, using an automated blood counter. […] The neuroprotective drug 4-methylcatechol (10 μg kg-1, i.p.) was injected once daily. The JAK inhibitor INCB018424 (S-Ruxilitinib, Abmole Bioscience) was administered by oral gavage (30 mg kg-1, twice per day separated 10-12 hours) in 0.5% hydroxypropylmethylcellulose (Sigma) after solubilisation in DMSO. The IL-1 receptor antagonist (Kineret, Sobi, Stockholm, Sweden) was administered by subcutaneous osmotic pumps (Alzet) infusing a continuous dosing of 40 mg kg-1 per day. Mice were sacrificed at different time points and subjected to complete necropsy; BM and spleen were analysed by histology and flow cytometry; femora and skull were used for immunostainings, and haematopoietic and stromal cells were additionally used for functional assays ex vivo.

[3] = tested on: CD45+ haematopoietic cells from BM of Nes-gfp;Mx1-cre;JAK2-V617F mice and control littermates; experiment: Colony-forming units in culture (CFU-C) with drug added in vitro; assay type: cell-based, mouse; settings: scored after one week in culture
Procedure: Colony-forming units in culture (CFU-C) assay was performed. […] Colonies of more than 50 cells were scored after 7 days of incubation at 37° C., 5% CO2, 20% O2 in a water-jacketed incubator. For CFU-F assays, BM CD45− Ter119− cells were plated into 6-well dishes and cultured in maintenance medium (α-MEM, 15% FCS with antibiotics). After 10-12 days in culture, adherent cells were fixed with 100% methanol and stained with Giemsa stain (Sigma) to reveal fibroblastic clusters. Colonies with more than 50 cells were scored as CFU-F.

[4] = tested on: mice transplanted with MPN BM cells (JAK2-V617F); experiment: In vivo pharmacological treatments of mice transplanted with MPN (Mx1-cre;JAK2-V617F) BM cells; set-up: species or system mouse
Source text: In Mx1-cre; JAK2-V617F double-transgenic mice, expression of the human JAK2-V617F mutation is driven by the endogenous Jak2 promoter and can be conditionally expressed in haematopoietic cells upon Myxovirus resistance-1 (Mx1)-driven Cre recombinase activation by polyinosine-polycytosine (plpC). PlpC-induced transgenic mice and wild-type mice transplanted with BM cells from these mice develop progressive symptoms of PV19,20.
as §1
BM cell extraction, flow cytometry and fluorescence-activated cell sorting For haematopoietic cell recovery, bones were crushed in a mortar, filtered through a 40-μm mesh to obtain single cell suspensions, and depleted of red blood cells by lysis in 0.15 M NH4Cl for 10 min at 4° C. Spleen samples were homogenised and filtered prior to lysis; blood samples were directly lysed. Cells (1-2×10^6 cells per sample) were incubated with the appropriate dilution (2-5 μg ml-1) of fluorescent antibody conjugates and 4′,6-diamidino-2-phenylindole (DAPI) for dead cell exclusion, and analysed on LSRFortessa flow cytometer (BD Biosciences, Franklin Lakes, N.J.) equipped with FACSDiva Software (BD Biosciences). […] Biotinylated antibodies were detected with fluorochrome-conjugated streptavidin (BD Biosciences). Phenotypic populations of HSC were defined as long-term haematopoietic stem cells (HSCs) (lin− Sca1+c-kit+ (LSK) CD34− Flt3−), short-term HSCs (LSK CD34+ Flt3−) and multipotent progenitors (MPP) (LSK CD34+ Flt3+).
Cells were filtered through a 40-μm mesh and erythrocytes were lysed as previously described. The resulting bone marrow-enriched cell suspensions were pelleted, washed and resuspended in PBS buffer containing 2% foetal calf serum (FCS) for further analyses. […] BM stromal CD45− CD31− Ter119− cells were further purified according to GFP fluorescence using a FACS Aria cell sorter (BD Bioscience). For the determination of apoptotic cells, samples were washed with PBS after surface antibody staining and subsequently stained with Annexin V-Pacific Blue and SYTOX AADvanced (Invitrogen, Life Technologies, Paisley, UK). For functional assays, cells were enriched by immunomagnetic depletion using biotinylated CD45 and Ter119. For immunophenotypic characterisation, total BM samples were studied by flow cytometry using the following additional antibodies: CD63 (NVG-2), CD105 (MJ7/18), CD140a (APA5), Vcam, CD51 (RMV-7), all from Biolegend; and CD90.2 from BD Biosciences.
Immunofluorescence staining of cryostat sections was performed. For whole mount staining of the calvaria, all incubation times were extended. The antibodies used were TH (Rabbit pAb, Millipore) and GFAP (Rabbit pAb, Dako).

[5] = advanced MPN, BRL37344 started upon thrombocytosis
[6] = symptomatic MPN mice, chronic BRL37344 2 mg kg-1 i.p. twice a day

β1 receptors, sequence (P08588 whole entry): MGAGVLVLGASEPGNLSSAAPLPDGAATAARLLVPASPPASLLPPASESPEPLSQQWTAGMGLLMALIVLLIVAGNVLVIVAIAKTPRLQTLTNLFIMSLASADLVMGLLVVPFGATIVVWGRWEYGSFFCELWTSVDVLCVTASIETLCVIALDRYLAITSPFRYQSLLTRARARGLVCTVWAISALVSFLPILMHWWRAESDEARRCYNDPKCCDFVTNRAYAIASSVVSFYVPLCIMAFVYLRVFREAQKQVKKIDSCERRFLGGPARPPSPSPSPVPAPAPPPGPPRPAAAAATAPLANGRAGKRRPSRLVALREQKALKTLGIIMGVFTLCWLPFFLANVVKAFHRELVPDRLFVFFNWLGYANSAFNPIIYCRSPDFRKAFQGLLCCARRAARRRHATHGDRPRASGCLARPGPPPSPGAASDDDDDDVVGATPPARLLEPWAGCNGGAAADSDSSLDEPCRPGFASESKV

Structure (SMILES): C[C@H](Cc1ccc(OCC(=O)O)cc1)NC[C@H](O)c1cccc(Cl)c1 [BRL37344, [4-[(2R)-2-[[(2R)-2-(3-clorophenyl)-2-hydroxyethyl]amino]propyl]phenoxy]acetic acid]
- Ki [1]: 1750 nM
- therapeutic effect of BRL37344 after in vivo depletion of nestin+ cells (blood counts) ([2]; Nes-creERT2;iDTA versus control mice): reduces
- leukocytosis in mice depleted in nestin+ cells ([2]; started 2 weeks after transplantation combined with tamoxifen): not rescued
- growth of cultured haematopoietic progenitors (CFU-C) [3]: neither 4-methylcatechol nor BRL37344 affected
- incipient MPN signs (haematological parameters) ([4]; 8 weeks after transplantation, treatment for the last 4 weeks): improved
- IL-1β in BM supernatant ([4]; BRL37344, 4 weeks, FIG. 4e): reduced
- BM Nes-GFP+ cell number ([4]; BRL37344, 8 weeks, FIG. 4f): restored
- Cxcl12 levels in BM ([4]; BRL37344, 16 weeks, FIG. 4g): increased
- mutant haematopoietic progenitors (LSK cells, LT- and ST-HSCs) ([4]; BRL37344 administered at thrombocytotic stage, FIG. 4k): efficiently decreased
- MPN progression ([4]; BRL37344 or Mirabegron 2 mg kg-1 i.p. twice a day): blocks
- neuroglial gene expression (Mbp, Mobp, Pleckhb1 mRNA) in BM Nes-GFP+ cells from MPN mice ([4]; BRL37344 over 8 weeks, starting 4 weeks after transplantation): do not express
- Schwann cell program activation in BM nestin+ cells ([4]; BRL37344 over 8 weeks, starting 4 weeks after transplantation, FIG. 11c): blocked
- BM Schwann cells (Gfap immunostaining) [4, 5]: rescued
- BM interleukin-1β [4, 5]: reduced
- erythrocytosis [4, 5]: reduced
- fibrosis and osteosclerosis [4, 5]: reduced
- neutrophilia [4, 5]: reduced
- thrombocytosis [4, 5]: reduced
- BM fibrosis: excessive bone and fibroblastic tissue (reticulin, Van Gieson) ([4]; chronic BRL37344 versus vehicle-injected mice with severe fibrosis): virtually devoid of excessive bone and fibroblastic tissue
- mutant haematopoietic progenitor expansion ([4]; early treatment, 4 weeks, BRL37344 2 mg kg-1 twice a day, 4-methylcatechol 10 μg kg-1 once daily): prevented
- mutant haematopoietic progenitors ([4]; long-term BRL37344 treatment, 16 weeks): efficiently decreased
- JAK2-V617F+ HSC expansion ([4]; long-term BRL37344 treatment, 16 weeks, 2 mg kg-1 twice a day i.p.): inhibits
- MPN-associated thrombocytosis [4, 6]: prevented
- red blood cell reduction [4, 6]: delayed
- MPN-associated neutrophilia ([4]; symptomatic MPN mice, treatment started 4 weeks after transplantation, BRL37344 2 mg kg-1 i.p. twice a day, 4-methylcatechol 10 μg kg-1 i.p. once daily): prevented
